Assay results: patent publication US20120283334A1, “Treatment of Viral Infections” (Biocopea, Ltd., priority 2009, published 2012)

Legend:
Format in all cases: cell-based, human
IFN-γ [1] = assay: IFN-γ levels in PBMC under LPS stimulation (ELISA); settings: for Percentage IFN-γ levels compared to 100% untreated cells under LPS stimulation: PBMC; for concentration of IFN-γ in LPS stimulated cells: text summary of Table 1, concentration not stated
Procedure: (§1) 1) Isolation, Culture and Treatment of Peripheral Blood Mononuclear Cells (PBMC) Blood was collected in 6 ml vacutainers (green cap). Blood was processed within 2 h of collection. Materials used: Non-coagulated blood; FCS; RPMI-1640 media supplemented with L-Gln and P/S; PBS; sterile tips and pipettes; Sterile 15 ml Falcon; Sterile V-bottom 96-well plates with lids; Neubauer chamber; Trypan Blue solution; 70% IPA solution; Accuspin-Histopaque tubes (Sigma, A7054) Procedure: • 1. Dilute samples 1:1 in sterile PBS; • 2. Add 30 ml of diluted blood into an Accuspin-Histopaque tube (Sigma, A7054); • 3. Centrifuge at 800 rcf 15min at room temperature (RT); • 4. After centrifugation, the red blood cells will remain at the bottom below the frit. The monocytes (PBMC) will be present on a layer above the frit, with the plasma on top; • 5. Collect the PBMC layer with a pipette into a fresh 15 ml Falcon tube and top up to 15 ml of PBS; • 6. Centrifuge at 250 rcf 10 min at RT; • 7. Discard the supernatant, flick the pellet and add another 10 ml of PBS; • 8. Centrifuge at 250 rcf 10 min at RT; • 9. Repeat steps 7 and 8; • 10. […] Count cells and make a 4×10^6 cell/ml suspension in complete medium. Add 100 μl of cell suspension per well in a V-bottom 96-well plate. Then add 50 μl of stimulant or vehicle in complete media, and 50 μl of drug or vehicle in complete media. Incubate the cells for 24 h at 37° C. 5% CO2; • 12. After incubation, take 60 μl of cell supernatant to measure IFNγ and TNFα by ELISA (OptEIA human IFNγ, cat No. 555142 and human TNF, Cat No. 555212) following manufacturer's instructions (BD Biosciences); The two mitogens that the inventors used to stimulate lymphocytes, and therefore assess immune function, were lipopolysaccharide (LPS) and Concanavalin A (Con A). LPS acts on B cells but not T cells, whereas Con A acts on T cells but not B cells. The effects of two embodiments of the compound represented by formula I, i.e. dobutamine (referred to in the tables as BC1021) and ritodrine (BC1023), on the levels of IFN-γ and TNF-α were investigated in LPS and Con A stimulated assays. Peripheral Blood Mononuclear Cells (PMBC) were independently administered with each mitogen, LPS or Con A, and then treated with either dobutamine or ritodrine. Control experiments were conducted in which no LPS or Con A was added, such that any effect on the levels of IFN-γ and TNF-α could be directly attributed to the presence of the test compound, dobutamine or ritodrine. The values in the Tables are expressed as the percentage value of the LPS only control. […] Standard deviation values (s.d.) are given underneath each value of expressed IFN-γ levels.

TNF-α [2] = assay: TNF-α levels in PBMC under LPS stimulation (ELISA); settings: for Percentage TNF-α levels compared to 100% untreated cells under LPS stimulation: PBMC; for concentration of TNF-α in LPS stimulated cells: text summary of Table 2, concentration not stated
Procedure: as §1

TNF-α [3] = assay: TNF-α levels in PBMC under Con A stimulation (ELISA); settings: for Percentage TNF-α levels compared to 100% untreated cells under Con A stimulation: PBMC; for concentration of TNF-α in Con A stimulated cells: text summary of Table 3, concentration not stated
Procedure: (§2) 1) Isolation, Culture and Treatment of Peripheral Blood Mononuclear Cells (PBMC) Blood was collected in 6 ml vacutainers (green cap). Blood was processed within 2 h of collection. Materials used: Non-coagulated blood; FCS; RPMI-1640 media supplemented with L-Gln and P/S; PBS; sterile tips and pipettes; Sterile 15 ml Falcon; Sterile V-bottom 96-well plates with lids; Neubauer chamber; Trypan Blue solution; 70% IPA solution; Accuspin-Histopaque tubes (Sigma, A7054) Procedure: • 1. Dilute samples 1:1 in sterile PBS; • 2. Add 30 ml of diluted blood into an Accuspin-Histopaque tube (Sigma, A7054); • 3. Centrifuge at 800 rcf 15min at room temperature (RT); • 4. After centrifugation, the red blood cells will remain at the bottom below the frit. The monocytes (PBMC) will be present on a layer above the frit, with the plasma on top; • 5. Collect the PBMC layer with a pipette into a fresh 15 ml Falcon tube and top up to 15 ml of PBS; • 6. Centrifuge at 250 rcf 10 min at RT; • 7. Discard the supernatant, flick the pellet and add another 10 ml of PBS; • 8. Centrifuge at 250 rcf 10 min at RT; • 9. Repeat steps 7 and 8; • 10. […] Count cells and make a 4×10^6 cell/ml suspension in complete medium. Add 100 μl of cell suspension per well in a V-bottom 96-well plate. Then add 50 μl of stimulant or vehicle in complete media, and 50 μl of drug or vehicle in complete media. Incubate the cells for 24 h at 37° C. 5% CO2; • 12. After incubation, take 60 μl of cell supernatant to measure IFNγ and TNFα by ELISA (OptEIA human IFNγ, cat No. 555142 and human TNF, Cat No. 555212) following manufacturer's instructions (BD Biosciences); The two mitogens that the inventors used to stimulate lymphocytes, and therefore assess immune function, were lipopolysaccharide (LPS) and Concanavalin A (Con A). LPS acts on B cells but not T cells, whereas Con A acts on T cells but not B cells. The effects of two embodiments of the compound represented by formula I, i.e. dobutamine (referred to in the tables as BC1021) and ritodrine (BC1023), on the levels of IFN-γ and TNF-α were investigated in LPS and Con A stimulated assays. Peripheral Blood Mononuclear Cells (PMBC) were independently administered with each mitogen, LPS or Con A, and then treated with either dobutamine or ritodrine. Control experiments were conducted in which no LPS or Con A was added, such that any effect on the levels of IFN-γ and TNF-α could be directly attributed to the presence of the test compound, dobutamine or ritodrine.

IFN-γ [4] = assay: IFN-γ levels in PBMC under Con A stimulation (ELISA); settings: for Percentage IFN-γ levels compared to 100% untreated cells under Con A stimulation: PBMC; for concentration of IFN-γ in Con A stimulated cells: text summary of Table 4, concentration not stated
Procedure: as §2

[5] = compound only (no Con A), 10 μM
[6] = compound only (no Con A), 100 μM

Row | SMILES | Percentage IFN-γ levels compared to 100% untreated cells under LPS stimulation (IFN-γ [1]; + LPS, compound 1 μM, 24 h) [%] | Percentage IFN-γ levels compared to 100% untreated cells under LPS stimulation (IFN-γ [1]; + LPS, compound 10 μM, 24 h) [%] | Percentage IFN-γ levels compared to 100% untreated cells under LPS stimulation (IFN-γ [1]; + LPS, compound 100 μM, 24 h) [%] | Percentage IFN-γ levels compared to 100% untreated cells under LPS stimulation (IFN-γ [1]; compound only (no LPS), 1 μM) [%] | Percentage IFN-γ levels compared to 100% untreated cells under LPS stimulation (IFN-γ [1]; compound only (no LPS), 10 μM) [%] | Percentage IFN-γ levels compared to 100% untreated cells under LPS stimulation (IFN-γ [1]; compound only (no LPS), 100 μM) [%] | concentration of IFN-γ in LPS stimulated cells (IFN-γ [1]) | Percentage TNF-α levels compared to 100% untreated cells under LPS stimulation (TNF-α [2]; + LPS, compound 1 μM, 24 h) [%] | Percentage TNF-α levels compared to 100% untreated cells under LPS stimulation (TNF-α [2]; + LPS, compound 10 μM, 24 h) [%] | Percentage TNF-α levels compared to 100% untreated cells under LPS stimulation (TNF-α [2]; + LPS, compound 100 μM, 24 h) [%] | Percentage TNF-α levels compared to 100% untreated cells under LPS stimulation (TNF-α [2]; compound only (no LPS), 1 μM) [%] | Percentage TNF-α levels compared to 100% untreated cells under LPS stimulation (TNF-α [2]; compound only (no LPS), 10 μM) [%] | Percentage TNF-α levels compared to 100% untreated cells under LPS stimulation (TNF-α [2]; compound only (no LPS), 100 μM) [%] | concentration of TNF-α in LPS stimulated cells (TNF-α [2]) | Percentage TNF-α levels compared to 100% untreated cells under Con A stimulation (TNF-α [3]; + Con A, compound 1 μM, 24 h) [%] | Percentage TNF-α levels compared to 100% untreated cells under Con A stimulation (TNF-α [3]; + Con A, compound 10 μM, 24 h) [%] | Percentage TNF-α levels compared to 100% untreated cells under Con A stimulation (TNF-α [3]; + Con A, compound 100 μM, 24 h) [%] | Percentage TNF-α levels compared to 100% untreated cells under Con A stimulation (TNF-α [3]; compound only (no Con A), 1 μM) [%] | Percentage TNF-α levels compared to 100% untreated cells under Con A stimulation (TNF-α [3]; [5]) [%] | Percentage TNF-α levels compared to 100% untreated cells under Con A stimulation (TNF-α [3]; [6]) [%] | further results
1 | CC(CCc1ccc(O)cc1)NCCc1ccc(O)c(O)c1 (stereo not drawn) [BC1021, dobutamine] | 82.88 | 29.84 | 37.22 | 1.21 | −0.33 | −0.99 | decreased | 91.20 | 84.79 | 81.41 | −80.18 | −145.07 | −151.15 | decreased | 103.05 | 102.36 | −33.95 | −35.44 | −33.21 | −42.84 | concentration of TNF-α in Con A stimulated cells (TNF-α [3]): decreased; Percentage IFN-γ levels compared to 100% untreated cells under Con A stimulation (IFN-γ [4]; + Con A, compound 1 μM, 24 h): 63.40%; Percentage IFN-γ levels compared to 100% untreated cells under Con A stimulation (IFN-γ [4]; + Con A, compound 10 μM, 24 h): 32.77%; Percentage IFN-γ levels compared to 100% untreated cells under Con A stimulation (IFN-γ [4]; + Con A, compound 100 μM, 24 h): −1.80%; Percentage IFN-γ levels compared to 100% untreated cells under Con A stimulation (IFN-γ [4]; + Con A, compound 100 μM, 24 h, listed as dobutamine): significant effect in decreasing; Percentage IFN-γ levels compared to 100% untreated cells under Con A stimulation (IFN-γ [4]; compound only (no Con A), 1 μM): −2.61%; Percentage IFN-γ levels compared to 100% untreated cells under Con A stimulation (IFN-γ [4]; [5]): −2.51%; Percentage IFN-γ levels compared to 100% untreated cells under Con A stimulation (IFN-γ [4]; [6]): −3.26%; concentration of IFN-γ in Con A stimulated cells (IFN-γ [4]): decreased
2 | CC(NCCc1ccc(O)cc1)C(O)c1ccc(O)cc1 (stereo not drawn) [BC1023, ritodrine] | 44.79 | 51.41 | 38.74 | 1.04 | 2.73 | 5.46 | decreased | 62.12 | 85.01 | 85.74 | −29.75 | 0.74 | −56.57 | decreased | 103.92 | 106.20 | 104.93 | −5.94 | −24.69 | −14.80 | concentration of TNF-α in Con A stimulated cells (TNF-α [3]): decreased; Percentage IFN-γ levels compared to 100% untreated cells under Con A stimulation (IFN-γ [4]; + Con A, compound 1 μM, 24 h): 39.93%; Percentage IFN-γ levels compared to 100% untreated cells under Con A stimulation (IFN-γ [4]; + Con A, compound 10 μM, 24 h): 34.25%; Percentage IFN-γ levels compared to 100% untreated cells under Con A stimulation (IFN-γ [4]; + Con A, compound 100 μM, 24 h): 41.69%; Percentage IFN-γ levels compared to 100% untreated cells under Con A stimulation (IFN-γ [4]; compound only (no Con A), 1 μM): −0.86%; Percentage IFN-γ levels compared to 100% untreated cells under Con A stimulation (IFN-γ [4]; [5]): −1.52%; Percentage IFN-γ levels compared to 100% untreated cells under Con A stimulation (IFN-γ [4]; [6]): −1.87%; concentration of IFN-γ in Con A stimulated cells (IFN-γ [4]): decreased
